Each block holds one compound with its values, some of them ahead of it.
How the values were obtained:
PPARγ = target: T1, PPARγ (Homo sapiens, UniProt P37231); test: PPARγ activity assay based on PEPCK expression in primary pre-adipocytes on coded carriers; conditions: four donor samples (visceral and subcutaneous pre-adipocytes), shared fluid volume, four days
T1 sequence (P37231 1-505): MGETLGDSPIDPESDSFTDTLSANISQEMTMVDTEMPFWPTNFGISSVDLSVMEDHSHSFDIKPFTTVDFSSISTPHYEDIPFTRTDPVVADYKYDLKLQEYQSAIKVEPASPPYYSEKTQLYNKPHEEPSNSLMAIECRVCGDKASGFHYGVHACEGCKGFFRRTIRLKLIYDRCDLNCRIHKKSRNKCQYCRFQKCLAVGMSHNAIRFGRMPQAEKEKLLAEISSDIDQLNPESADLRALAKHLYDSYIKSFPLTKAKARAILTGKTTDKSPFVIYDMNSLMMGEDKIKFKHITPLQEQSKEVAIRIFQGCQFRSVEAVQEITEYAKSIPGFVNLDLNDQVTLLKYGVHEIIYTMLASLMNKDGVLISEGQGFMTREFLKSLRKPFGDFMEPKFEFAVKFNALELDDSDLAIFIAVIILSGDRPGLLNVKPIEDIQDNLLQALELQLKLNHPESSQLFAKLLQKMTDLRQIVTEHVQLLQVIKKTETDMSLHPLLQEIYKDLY
Text: This differentiation may be visualized readily and scored by staining lipid droplets that accumulate in the cytoplasm of the adipocytes during and/or after their differentiation. Furthermore, this adipocyte differentiation and/or activation of PPARγ may be followed by measuring the expression levels (RNA and/or protein) of PPARγ target genes (direct or indirect targets), such as PEPCK (phosphoenolpyruvate carboxykinsae) and/or FABP4 (fatty acid binding protein 4), among others.
Staining was via indirect immunofluorescence. Cells were counterstained with a nuclear dye (Hoechst) for data normalization, here and in other assays. […] Each sample of primary cells corresponds to pre-adipocytes isolated from visceral tissue (samples starting with the letter “V”) or isolated from subcutaneous tissue (samples starting with the letters “SC”) and were supplied by Cambrex. […] Each sample was connected to a distinct class of coded carriers (having a distinct code) to permit identification of the sample after combining the different classes of carrier and samples in a shared volume. […] Lipid accumulation and PEPCK expression were then measured with the samples still disposed in the same microplate wells. […]

[1] = test system: primary human renal proximal tubule epithelial (HRPTE) cells; test: proliferative response of primary HRPTE cells (S-phase index); format: cell-based; conditions: HRPTE cells in 96-well microplate wells or on coded carriers; various concentrations
Protocol: This example describes how multiplexed analysis using coded carriers may be used to assay the effects of camptothecin on the proliferative response of primary human renal proximal tubule epithelial (HRPTE) cells, in accordance with aspects of the present teachings; see FIG. 6.
Specifically, HRPTE cells are grown directly in wells of a standard 96-well microplate, to three different cell densities (indicated as the stated number of cells), or on coded carriers that optionally may be placed in wells of the microplate. An “S-phase index” (e.g., the fraction of cells in the S-phase of the cell cycle) is used as a measure of cell proliferation. […] This reduction may be particularly significant in assays on primary cells, because primary cells typically are difficult to obtain and maintain.

HRPTE cells = test: cytotoxicity response of HRPTE cells (death index, live/dead assay); format: cell-based, human; conditions: HRPTE cells in 96-well microplate wells or on coded carriers; various concentrations
Protocol: This example describes how multiplexed analysis using coded carriers may be used to study the cytotoxicity response of HRPTE cells to staurosporine, in accordance with aspects of the present teachings; see FIG. 7.
Specifically, HRPTE cells are grown directly attached to wells of a standard 96-well microplate, or on coded carriers that optionally may be placed in wells of the microplate. A “death index” (e.g., the fraction of observed cells that are dead) may be used as a measure of cytotoxicity. The death index may be computed using any suitable mechanism, such as a fluorescence-based “live/dead assay.” In an exemplary version of the assay, live cells are labeled green using a membrane-permeant calcein AM, which is cleaved by esterases in live cells to yield cytoplasmic green fluorescence, and dead cells are labeled red using a membrane-impermeant ethidium homodimer-1, which passes through the compromised membranes of dead cells to label nucleic acids with red fluorescence. […] This reduction may be particularly significant in assays on primary cells, because primary cells typically are difficult to obtain and maintain.

induction of PEPCK expression as a measure of PPARγ activity (PPARγ): relatively strong induction
Structure (SMILES): COc1ccc2c(c1)c(CC(=O)O)c(C)n2C(=O)c1ccc(Cl)cc1 [Indomethacin, indomethacin]

Structure (SMILES): CC[C@@]1(O)C(=O)OCc2c1cc1n(c2=O)Cc2cc3ccccc3nc2-1 [camptothecin]
S-phase index as a measure of cell proliferation [1]: S-phase index generally decreases with increasing camptothecin concentration

Structure (SMILES): CN[C@@H]1C[C@H]2O[C@@](C)([C@@H]1OC)n1c3ccccc3c3c4c(c5c6ccccc6n2c5c31)C(=O)NC4 [staurosporine]
death index (fraction of dead cells) (HRPTE cells): generally increases with increasing staurosporine concentration

From patent publication US20050084914A1, “Assays with primary cells” (priority 2003, published 2005)
